Laboratory results: US20090252788A1, “Balsalazide formulations and manufacture and use thereof” (Salix Pharmaceuticals, Inc., priority 2005, published 2009)

How the values were obtained:
Type in all cases: physicochemical
[1] = Solubility of balsalazide disodium in solvents
[2] = Stability of standard and sample solutions in dissolution medium; settings: room temperature, unprotected from light
Method: Prepare the stock standard solution in duplicate. For each preparation, transfer approximately 35 mg of Balsalazide Disodium Reference Standard, accurately weighed, to a 200-mL volumetric flask. Add 150 mL of dissolution medium, swirl and briefly sonicate to dissolve the flask contents. Dilute to volume with dissolution medium and mix well. Stock Standard Preparation A should be used for analysis of dissolution samples. Prep B should be used as the standard check preparation. The stock standard preparation is stable for 4 days when stored at room temperature and unprotected from light.
For each of the stock standard preparations, pipet 5.0 mL of the stock solution into a 50-mL volumetric flask, dilute to volume with dissolution medium, and mix well. The working standard preparation is stable for 4 days when stored at room temperature and unprotected from light.
Perform USP Apparatus 2 dissolution testing on six individual capsules utilizing the dissolution conditions listed below. Immediately, filter the samples using a 0.2 μm Gelman Nylon filter or a 10-μm Vankel Full Flow filter, discarding the first 2 mL of sample. Pipet 2.0 mL of the sample filtrate into a 100-mL volumetric flask, dilute to volume with dissolution medium, and mix well (nominal concentration: 0.017 mg Balsalazide Disodium per mL). […]

[3] = Particle size distribution and specific surface area (LS 200, Small Volume Module, Fraunhofer optical model); settings: for Particle size, % < 10: 10% of volume below this size; for Particle size, % < 25: 25% of volume below this size; for Particle size, % < 50: 50% of volume below this size; for Particle size, % < 75: 75% of volume below this size; for Particle size, % < 100: 100% of volume below this size; for Mean particle size (volume statistics, arithmetic) / Median particle size (volume statistics, arithmetic) / Specific Surf. Area: calculations from 0.375 μm to 2000 μm
From the text: FIG. 2 depicts and the data below tabulate for Sample 1 the arithmetic statistics describing surface area, particle size, and cumulative volume characteristics for one lot of drug substance (feed material). The particle size distribution for this lot is depicted in FIG. 2.
Table 11 A-D tabulates the arithmetic statistics describing surface area, particle size, and cumulative volume characteristics for three lots of drug substance (feed material). The particle size distributions for these lots are depicted in FIG. 7. […] Of these three lots of drug substance, 100% of the particles are less than 83.89 μm, 373.1 μm, and 69.61 μm, respectively.
Table 12 tabulates the arithmetic statistics describing surface area, particle size, and cumulative volume characteristics for three lots of drug product (encapsulated granulation samples) that were manufactured with the three lots of drug substance (feed material) as depicted in FIG. 7. […] Of these three lots of drug product, 100% of the granules are less than 1660 μm, 2000 μm, and 1512 μm, respectively. The particle size distributions for these three lots are depicted in FIG. 8.

[4] = Particle Diameter (Lower) 0.375 μm
[5] = Particle Diameter (Lower) 0.656 μm
[6] = Particle Diameter (Lower) 1.149 μm
[7] = Particle Diameter (Lower) 2.011 μm
[8] = Particle Diameter (Lower) 3.519 μm
[9] = Particle Diameter (Lower) 6.158 μm
[10] = Particle Diameter (Lower) 10.78 μm
[11] = Particle Diameter (Lower) 18.86 μm
[12] = Particle Diameter (Lower) 33.01 μm
[13] = Particle Diameter (Lower) 57.77 μm
[14] = Particle Diameter (Lower) 101.1 μm
[15] = Particle Diameter (Lower) 176.9 μm
[16] = Particle Diameter (Lower) 309.6 μm
[17] = Particle Diameter (Lower) 541.9 μm
[18] = Particle Diameter (Lower) 948.3 μm
[19] = Particle Diameter (Lower) 1660 μm

With `O.O.O=C([O-])CCNC(=O)c1ccc(/N=N/c2ccc(O)c(C(=O)[O-])c2)cc1.[Na+].[Na+]` [Balsalazide disodium, (E)-5-[[-4-[[(2-carboxyethyl)amino]carbonyl]phenyl]azo]-2-hydroxybenzoic acid, disodium salt, dihydrate] the Solubility ([1]; in all other organic solvents) was “practically insoluble”, the Solubility ([1]; in ethanol) was “sparingly soluble” and the Solubility ([1]; in isotonic saline) was “freely soluble”. For the same compound, the Solubility ([1]; in methanol) was “sparingly soluble”, the Solubility ([1]; in water) was “freely soluble” and the “Time the preparation is stable” value ([2]; stock standard preparation 0.175 mg/mL in dissolution medium) was 4 days. For the same compound, the “Time the preparation is stable” value ([2]; working standard preparation 0.0175 mg/mL in dissolution medium) was 4 days.
In the case of `O=C([O-])CCNC(=O)c1ccc(/N=N/c2ccc(O)c(C(=O)[O-])c2)cc1.[Na+].[Na+]` [Sample 1], the “Particle size, % < 10” value [3] is reported as 1.266 μm, the “Particle size, % < 25” value [3] is reported as 2.827 μm and the “Particle size, % < 50” value [3] is reported as 5.584 μm. For the same compound, the “Particle size, % < 75” value [3] was 9.624 μm, the “Particle size, % < 100” value [3] was 43.67 μm and the “Cum. < Volume %” value [3, 4] was 0%. For the same compound, the “Diff. Volume %” value [3, 4] was 2.66%, the “Cum. < Volume %” value [3, 5] was 2.66% and the “Diff. Volume %” value [3, 5] was 6.09%. The “Cum. < Volume %” value [3, 6] was 8.74%, the “Diff. Volume %” value [3, 6] was 8.50% and the “Cum. < Volume %” value [3, 7] was 17.2%. For the same compound, the “Diff. Volume %” value [3, 7] was 14.4%, the “Cum. < Volume %” value [3, 8] was 31.6% and the “Diff. Volume %” value [3, 8] was 22.8%. For the same compound, the “Cum. < Volume %” value [3, 9] was 54.5%, the “Diff. Volume %” value [3, 9] was 25.3% and the “Cum. < Volume %” value [3, 10] was 79.8%. The “Diff. Volume %” value [3, 10] was 15.8%, the “Cum. < Volume %” value [3, 11] was 95.6% and the “Diff. Volume %” value [3, 11] was 4.34%. For the same compound, the “Cum. < Volume %” value [3, 12] was 99.97%, the “Diff. Volume %” value [3, 12] was 0.030% and the “Cum. < Volume %” value [3, 13] was 100%. The “Diff. Volume %” value [3, 13] was 0%, the “Cum. < Volume %” value [3, 14] was 100% and the “Diff. Volume %” value [3, 14] was 0%. For the same compound, the “Cum. < Volume %” value [3, 15] was 100%, the “Diff. Volume %” value [3, 15] was 0% and the “Cum. < Volume %” value [3, 16] was 100%. For the same compound, the “Diff. Volume %” value [3, 16] was 0%, the “Cum. < Volume %” value [3, 17] was 100% and the “Diff. Volume %” value [3, 17] was 0%. The “Cum. < Volume %” value [3, 18] was 100%, the “Diff. Volume %” value [3, 18] was 0% and the “Cum. < Volume %” value [3, 19] was 100%. The “Diff. Volume %” value [3, 19] was 0%, the “Mean particle size (volume statistics, arithmetic)” value [3] was 6.967 μm and the “Median particle size (volume statistics, arithmetic)” value [3] was 5.584 μm. For the same compound, the “Specific Surf. Area” value [3] was 19389 cm^2/mL.
In the case of `O=C([O-])CCNC(=O)c1ccc(/N=N/c2ccc(O)c(C(=O)[O-])c2)cc1.[Na+].[Na+]` [Sample 2], the “Particle size, % < 10” value [3] is reported as 1.192 μm, the “Particle size, % < 25” value [3] is reported as 2.586 μm and the “Particle size, % < 50” value [3] is reported as 5.044 μm. For the same compound, the “Particle size, % < 75” value [3] was 8.715 μm, the “Particle size, % < 100” value [3] was 47.94 μm and the “Cum. < Volume %” value [3, 4] was 0%. The “Diff. Volume %” value [3, 4] was 2.91%, the “Cum. < Volume %” value [3, 5] was 2.91% and the “Diff. Volume %” value [3, 5] was 6.59%. The “Cum. < Volume %” value [3, 6] was 9.50%, the “Diff. Volume %” value [3, 6] was 9.37% and the “Cum. < Volume %” value [3, 7] was 18.9%. For the same compound, the “Diff. Volume %” value [3, 7] was 16.1%, the “Cum. < Volume %” value [3, 8] was 35.0% and the “Diff. Volume %” value [3, 8] was 24.3%. For the same compound, the “Cum. < Volume %” value [3, 9] was 59.3%, the “Diff. Volume %” value [3, 9] was 24.1% and the “Cum. < Volume %” value [3, 10] was 83.4%. For the same compound, the “Diff. Volume %” value [3, 10] was 12.6%, the “Cum. < Volume %” value [3, 11] was 96.0% and the “Diff. Volume %” value [3, 11] was 3.78%. For the same compound, the “Cum. < Volume %” value [3, 12] was 99.8%, the “Diff. Volume %” value [3, 12] was 0.23% and the “Cum. < Volume %” value [3, 13] was 100%. For the same compound, the “Diff. Volume %” value [3, 13] was 0%, the “Cum. < Volume %” value [3, 14] was 100% and the “Diff. Volume %” value [3, 14] was 0%. For the same compound, the “Cum. < Volume %” value [3, 15] was 100%, the “Diff. Volume %” value [3, 15] was 0% and the “Cum. < Volume %” value [3, 16] was 100%. The “Diff. Volume %” value [3, 16] was 0%, the “Cum. < Volume %” value [3, 17] was 100% and the “Diff. Volume %” value [3, 17] was 0%. The “Cum. < Volume %” value [3, 18] was 100%, the “Diff. Volume %” value [3, 18] was 0% and the “Cum. < Volume %” value [3, 19] was 100%. The “Diff. Volume %” value [3, 19] was 0%, the “Mean particle size (volume statistics, arithmetic)” value [3] was 6.503 μm and the “Median particle size (volume statistics, arithmetic)” value [3] was 5.044 μm. The “Specific Surf. Area” value [3] was 20709 cm^2/mL.
